{"source": "patent US20250171438A1", "about": "(Agios Pharmaceuticals, Inc., priority 2022, published 2025)"}
{"target": "T1, human PAH with the R408W mutation (Homo sapiens, UniProt P00439, R408W)", "T1 construct": "expressed in transfected cells", "T1 sequence (P00439 1-452 R408W)": "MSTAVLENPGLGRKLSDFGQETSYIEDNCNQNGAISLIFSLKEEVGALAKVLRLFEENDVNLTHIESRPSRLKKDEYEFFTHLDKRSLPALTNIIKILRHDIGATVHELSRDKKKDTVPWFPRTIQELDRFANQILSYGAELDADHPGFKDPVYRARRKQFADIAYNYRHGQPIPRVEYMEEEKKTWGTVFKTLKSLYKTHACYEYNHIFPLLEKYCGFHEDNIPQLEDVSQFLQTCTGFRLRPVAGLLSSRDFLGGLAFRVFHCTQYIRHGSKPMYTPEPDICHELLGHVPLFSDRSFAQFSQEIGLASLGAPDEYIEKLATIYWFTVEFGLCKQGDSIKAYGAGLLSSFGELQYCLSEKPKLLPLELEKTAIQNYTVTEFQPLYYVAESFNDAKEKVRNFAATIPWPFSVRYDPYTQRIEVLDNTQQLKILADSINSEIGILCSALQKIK", "assay": "Cell Based Phenylalanine Flux Assay", "details": "A375 cells expressing human R408W PAH; 24 hrs compound incubation; 13C-Tyrosine by LC-MS; average where tested multiple times; read-out: AC50", "units": {"AC50": "nM"}}
{"smiles": "Cn1nc(C(C)(C)C#N)nc1C(=O)N1CCc2[nH]cnc2[C@H]1c1nc2ccccc2s1", "note": "[Example 2045, (S)-2-(5-(4-(benzo[d]thiazol-2-yl)-4,5,6,7-tetrahydro-1H-imidazo[4,5-c]pyridine-5-carbonyl)-1-methyl-1H-1,2,4-triazol-3-yl)-2-methylpropanenitrile]", "AC50": "1000 to 5000"}
{"smiles": "Cn1nc(C(C)(C)C#N)nc1C(=O)N1CCc2[nH]cnc2[C@@H]1c1nc2ccccc2s1", "note": "[Example 2046, (R)-2-(5-(4-(benzo[d]thiazol-2-yl)-4,5,6,7-tetrahydro-1H-imidazo[4,5-c]pyridine-5-carbonyl)-1-methyl-1H-1,2,4-triazol-3-yl)-2-methylpropanenitrile]", "AC50": "1000 to 5000"}
{"smiles": "Cn1nc(C(C)(C)C#N)nc1C(=O)N1CCc2[nH]cnc2[C@H]1c1nc2c(F)cccc2s1", "note": "[Example 2047, (S)-2-(5-(4-(4-fluorobenzo[d]thiazol-2-yl)-4,5,6,7-tetrahydro-1H-imidazo[4,5-c]pyridine-5-carbonyl)-1-methyl-1H-1,2,4-triazol-3-yl)-2-methylpropanenitrile]", "AC50": "500 to 1000"}
{"smiles": "Cn1nc(C(C)(C)C#N)nc1C(=O)N1CCc2[nH]cnc2[C@@H]1c1nc2c(F)cccc2s1", "note": "[Example 2048, (R)-2-(5-(4-(4-fluorobenzo[d]thiazol-2-yl)-4,5,6,7-tetrahydro-1H-imidazo[4,5-c]pyridine-5-carbonyl)-1-methyl-1H-1,2,4-triazol-3-yl)-2-methylpropanenitrile]", "AC50": "1000 to 5000"}
{"smiles": "Cc1nc(C(C)(C)N(C)C)oc1C(=O)N1CCc2[nH]cnc2[C@H]1c1nc2c(F)cccc2s1", "note": "[Example 2049, (S)-(2-(2-(dimethylamino)propan-2-yl)-4-methyloxazol-5-yl)(4-(4-fluorobenzo[d]thiazol-2-yl)-6,7-dihydro-1H-imidazo[4,5-c]pyridin-5(4H)-yl)methanone]", "AC50": "1000 to 5000"}
{"smiles": "Cc1nc(C(C)(C)N(C)C)oc1C(=O)N1CCc2[nH]cnc2[C@@H]1c1nc2c(F)cccc2s1", "note": "[Example 2050, (R)-(2-(2-(dimethylamino)propan-2-yl)-4-methyloxazol-5-yl)(4-(4-fluorobenzo[d]thiazol-2-yl)-6,7-dihydro-1H-imidazo[4,5-c]pyridin-5(4H)-yl)methanone]", "AC50": "1000 to 5000"}
{"smiles": "Nc1cc(C(=O)N2CCc3[nH]cnc3[C@H]2c2nc3ccccc3s2)n(C(F)F)n1", "note": "[Example 2051]", "AC50": "< 500"}
{"smiles": "Nc1cc(C(=O)N2CCc3[nH]cnc3[C@@H]2c2nc3ccccc3s2)n(C(F)F)n1", "note": "[Example 2052, (R)-(3-amino-1-(difluoromethyl)-1H-pyrazol-5-yl)(4-(benzo[d]thiazol-2-yl)-6,7-dihydro-1H-imidazo[4,5-c]pyridin-5(4H)-yl)methanone]", "AC50": "1000 to 5000"}
{"smiles": "Nc1cc(C(=O)N2CCc3[nH]cnc3[C@H]2c2nc3c(F)cccc3s2)n(C(F)F)n1", "note": "[Example 2053, (S)-(3-amino-1-(difluoromethyl)-1H-pyrazol-5-yl)(4-(4-fluorobenzo[d]thiazol-2-yl)-6,7-dihydro-1H-imidazo[4,5-c]pyridin-5(4H)-yl)methanone]", "AC50": "500 to 1000"}
{"smiles": "Nc1cc(C(=O)N2CCc3[nH]cnc3[C@@H]2c2nc3c(F)cccc3s2)n(C(F)F)n1", "note": "[Example 2054, (R)-(3-amino-1-(difluoromethyl)-1H-pyrazol-5-yl)(4-(4-fluorobenzo[d]thiazol-2-yl)-6,7-dihydro-1H-imidazo[4,5-c]pyridin-5(4H)-yl)methanone]", "AC50": "> 5000"}
{"smiles": "O=C(c1oc(C2(O)CC2)nc1C(F)F)N1CCc2[nH]cnc2[C@H]1c1nc2ccccc2s1", "note": "[Example 2055]", "AC50": "< 500"}
{"smiles": "O=C(c1oc(C2(O)CC2)nc1C(F)F)N1CCc2[nH]cnc2[C@@H]1c1nc2ccccc2s1", "note": "[Example 2056, (R)-(4-(benzo[d]thiazol-2-yl)-6,7-dihydro-1H-imidazo[4,5-c]pyridin-5(4H)-yl)(4-(difluoromethyl)-2-(1-hydroxycyclopropyl)oxazol-5-yl)methanone]", "AC50": "1000 to 5000"}
{"smiles": "CC(C)(O)Cc1nc(C(F)F)c(C(=O)N2CCc3[nH]cnc3[C@H]2c2nc3c(F)cccc3s2)o1", "note": "[Example 2061]", "AC50": "< 500"}
{"smiles": "CC(C)(O)Cc1nc(C(F)F)c(C(=O)N2CCc3[nH]cnc3[C@@H]2c2nc3c(F)cccc3s2)o1", "note": "[Example 2062, (R)-(4-(difluoromethyl)-2-(2-hydroxy-2-methylpropyl)oxazol-5-yl)(4-(4-fluorobenzo[d]thiazol-2-yl)-6,7-dihydro-1H-imidazo[4,5-c]pyridin-5(4H)-yl)methanone]", "AC50": "1000 to 5000"}
{"smiles": "CC[C@H](O)c1nc(C(F)F)c(C(=O)N2CCc3[nH]cnc3[C@H]2c2nc3c(F)cccc3s2)o1", "note": "[Example 2063]", "AC50": "< 500"}
{"smiles": "CC[C@H](O)c1nc(C(F)F)c(C(=O)N2CCc3[nH]cnc3[C@@H]2c2nc3c(F)cccc3s2)o1", "note": "[Example 2064, (4-(difluoromethyl)-2-((S)-1-hydroxypropyl)oxazol-5-yl)((R)-4-(4-fluorobenzo[d]thiazol-2-yl)-6,7-dihydro-1H-imidazo[4,5-c]pyridin-5(4H)-yl)methanone]", "AC50": "1000 to 5000"}
{"smiles": "CC(C)(O)c1nc(CF)c(C(=O)N2CCc3[nH]cnc3[C@H]2c2nc3c(F)cccc3s2)o1", "note": "[Example 2065, (S)-(4-(4-fluorobenzo[d]thiazol-2-yl)-6,7-dihydro-1H-imidazo[4,5-c]pyridin-5(4H)-yl)(4-(fluoromethyl)-2-(2-hydroxypropan-2-yl)oxazol-5-yl)methanone]", "AC50": "< 500"}
{"smiles": "CC(C)(O)c1nc(CF)c(C(=O)N2CCc3[nH]cnc3[C@@H]2c2nc3c(F)cccc3s2)o1", "note": "[Example 2066, (R)-(4-(4-fluorobenzo[d]thiazol-2-yl)-6,7-dihydro-1H-imidazo[4,5-c]pyridin-5(4H)-yl)(4-(fluoromethyl)-2-(2-hydroxypropan-2-yl)oxazol-5-yl)methanone]", "AC50": "1000 to 5000"}
{"smiles": "CC[C@@H](O)c1nc(C(F)F)c(C(=O)N2CCc3[nH]cnc3[C@H]2c2nc3c(F)cccc3s2)o1", "note": "[Example 2067]", "AC50": "< 500"}
{"smiles": "CC[C@@H](O)c1nc(C(F)F)c(C(=O)N2CCc3[nH]cnc3[C@@H]2c2nc3c(F)cccc3s2)o1", "note": "[Example 2068, (4-(difluoromethyl)-2-((R)-1-hydroxypropyl)oxazol-5-yl)((R)-4-(4-fluorobenzo[d]thiazol-2-yl)-6,7-dihydro-1H-imidazo[4,5-c]pyridin-5(4H)-yl)methanone]", "AC50": "500 to 1000"}
{"smiles": "CNC(C)(C)c1nc(C(F)F)c(C(=O)N2CCc3[nH]cnc3[C@H]2c2nc3c(F)cccc3s2)o1", "note": "[Example 2069, (S)-(4-(difluoromethyl)-2-(2-(methylamino)propan-2-yl)oxazol-5-yl)(4-(4-fluorobenzo[d]thiazol-2-yl)-6,7-dihydro-1H-imidazo[4,5-c]pyridin-5(4H)-yl)methanone]", "AC50": "< 500"}
{"smiles": "CNC(C)(C)c1nc(C(F)F)c(C(=O)N2CCc3[nH]cnc3[C@@H]2c2nc3c(F)cccc3s2)o1", "note": "[Example 2070, (R)-(4-(difluoromethyl)-2-(2-(methylamino)propan-2-yl)oxazol-5-yl)(4-(4-fluorobenzo[d]thiazol-2-yl)-6,7-dihydro-1H-imidazo[4,5-c]pyridin-5(4H)-yl)methanone]", "AC50": "< 500"}
{"smiles": "CC(C)(CO)c1nc(C(F)F)c(C(=O)N2CCc3[nH]cnc3[C@H]2c2nc3c(F)cccc3s2)o1", "note": "[Example 2071]", "AC50": "< 500"}
